From patent US20160095843A1, “PYRAZOLOPYRROLIDINE DERIVATIVES AND THEIR USE IN THE TREATMENT OF DISEASE” (NOVARTIS AG, priority 2013, published 2016)
Like-named read-outs stand apart in the source and are kept apart here.

Legend:
[1] = target: T1, BRD3 (Homo sapiens, UniProt Q15059); test: TR-FRET in-vitro binding assay for BRD3; settings: Biochemical IC50 values, His-Brd3(20-477)
T1 construct: 45 nM His-Brd3(20-477) or 45 nM His-Brd4(44-477)
Description: (§1) TR-FRET In-Vitro Binding Assays for BRD2, BRD3, and BRD4:
(§2) All assays were performed in 384-well microtiter plates. Each assay plate contained 8-point serial dilutions for 40 test compounds, plus 16 high- and 16 low controls. Liquid handling and incubation steps were done on an Innovadyne Nanodrop Express equipped with a robotic arm (Thermo CatX, Perkin Elmer/Caliper Twister II) and an incubator (Liconic STX40, Thermo Cytomat 2C450). The assay plates were prepared by addition of 50n1 per well of compound solution in 90% DMSO HummingBird nanodispenser (Zinsser Analytic). […] Reactions were incubated at 30° C. for 35 minutes. […] After 35 minutes incubation at 30° C., plates were measured in a Perkin Elmer EnVision multilabel reader.
(§3) Preparation of Compound Dilutions
(§4) Test compounds were dissolved in DMSO (10 mM) and transferred into 1.4 mL flat bottom or V-shaped Matrix tubes carrying a unique 2D matrix. The stock solutions were stored at […] if not used immediately. For the test procedure the vials were defrosted and identified by a scanner whereby a working sheet was generated that guided the subsequent working steps. Compound dilutions were made in 96 well plates. This format enabled the assay of maximally 40 individual test compounds at 8 concentrations (single points) including 4 reference compounds, if desired (known BET inhibitors from the prior art, for this and other assays of the type disclosed herein). The dilution protocol included the production of “pre-dilution plates”, “master plates” and “assay plates”.
(§5) Polypropylene 96-well plates were used as pre-dilution plates. […] All dilution steps were done on a HamiltonSTAR robot.
(§6) These plates were used directly for the assay which was performed in a total volume of 13.55 μL.

[2] = target: T2, CREBBP (Homo sapiens, UniProt Q92793); test: AlphaScreen in-vitro binding assay for CREBBP; settings: Biochemical IC50 values, His-CREBBP(1081-1197)
T2 construct: 324 nM His-CREBBP(1081-1197) (custom production at Viva Biotech Ltd.)
Description: AlphaScreen In-Vitro Binding Assay for CREBBP
In order to assess bromodomain selectivity, we set up a binding assay using the bromodomain encoded by the CREBBP gene. […] Reactions were incubated at 30° C. for 35 minutes. Subsequently 4.5 μL per well detection mix (50 mM HEPES, pH 7.5, 0.005% Tween20, 0.02% BSA, 150 mM NaCl, 45 μg/ml Ni-chelate acceptor beads, 45 μg/mL streptavidin-donor beads) (Perkin Elmer)) were added. After 60 minutes incubation at room temperature, plates were measured in a Perkin Elmer EnVision multilabel reader. IC50 values were determined from percent inhibition values at different compound concentrations by non-linear regression analysis.
as §3
Test compounds were dissolved in DMSO (10 mM) and transferred into 1.4 mL flat bottom or V-shaped Matrix tubes carrying a unique 2D matrix. The stock solutions were stored at […] if not used immediately. For the test procedure the vials were defrosted and identified by a scanner whereby a working sheet was generated that guided the subsequent working steps. Compound dilutions were made in 96 well plates. This format enabled the assay of maximally 40 individual test compounds at 8 concentrations (single points) including 4 reference compounds, if desired (known BET inhibitors from the prior art, for this and other assays of the type disclosed herein). […]

[3] = target: T3, BRD2 (Homo sapiens, UniProt P25440); test: TR-FRET in-vitro binding assay for BRD2; settings: Biochemical IC50 values, His-Brd2(60-472)
T3 construct: 45 nM His-Brd2(60-472) or 45 nM His-Brd3(20-477)
Description: as §1, §2, §3, §4, §5, §6

[4] = test system: THP-1 cells; test: Cell growth inhibition assay (CellTiter-Glo), THP-1; format: cell-based; settings: Homo sapiens
Summary of the method: (§7)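 Leukemia lines grown in their own media were exposed for 4 days at 37° C. to 3-fold serial dilutions from 10 μM (0.1% DMSO). Viability by CellTiter-Glo ATP luminescence, corrected for background and day-0 plate; IC50 and TGI from four-parameter fit against vehicle (100%) and medium (−100%).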

[5] = test system: MV-4-11 cells; test: Cell growth inhibition assay (CellTiter-Glo), MV-4-11; format: cell-based; settings: Homo sapiens, MV4-11
Summary of the method: as §7

[6] = test system: K-562 cells; test: Cell growth inhibition assay (CellTiter-Glo), K-562; format: cell-based, human
Summary of the method: as §7

[7] = target: T4, nuclear BRD4-NUT foci in HCC2494 NUT midline carcinoma cells (Homo sapiens, UniProt O60885+Q86Y26); test: Nut-foci formation assay; format: cell-based; settings: 24 hours, NUT-foci per nucleus, read-out: HCS Brd4-NUT IC50
T4 construct: HCC2494 NUT midline carcinoma cells (expressing BRD4-NUT-fusion)
Description: HCC2494 NUT midline carcinoma cells (expressing BRD4-NUT-fusion) were obtained from the University of Texas Southwestern and cultured in RPMI-1640 medium containing 10% Foetal Calf Serum at 37° C. in a humidified 5% CO2 incubator.
Compound-mediated inhibition of BRD4 activity was monitored by quantification of the number and intensity of nuclear BRD4-NUT foci using automated immunofluorescence microscopy. Briefly, 5000 cells in 20 μL fresh medium were seeded into Poly-D-Lysine-precoated 384-well plates and incubated overnight at 37° C. and 5% CO2, followed by addition of 5 μl medium containing compound dilutions at 5-fold their final intended concentration. Dose-response effects were assessed by 3-fold serial dilutions of the test compound, starting at 10 μM. […] Assay plates were imaged using the appropriate filter sets on the Cellomics VTi automated fluorescence microscopy platform (ThermoFisher Scientific) and the population average of the number of NUT-foci per nucleus is quantified using the Cellomics Spot Detection BioApplication image analysis algorithm (ThermoFisher Scientific). The effect of a particular test compound concentration on NUT-foci number and intensity is expressed as percentage of the value obtained for cells treated with vehicle only (DMSO, 0.1% final concentration), which was set as 100. […]

[8] = target: T5, BRD4 (Homo sapiens, UniProt O60885); test: TR-FRET in-vitro binding assay for BRD4; settings: Biochemical IC50 values, His-Brd4(44-477)
T5 construct: 45 nM His-Brd4(44-477) all proteins produced in-house
Description: as §1, §2, §3, §4, §5, §6

T1 sequence (Q15059 20-477): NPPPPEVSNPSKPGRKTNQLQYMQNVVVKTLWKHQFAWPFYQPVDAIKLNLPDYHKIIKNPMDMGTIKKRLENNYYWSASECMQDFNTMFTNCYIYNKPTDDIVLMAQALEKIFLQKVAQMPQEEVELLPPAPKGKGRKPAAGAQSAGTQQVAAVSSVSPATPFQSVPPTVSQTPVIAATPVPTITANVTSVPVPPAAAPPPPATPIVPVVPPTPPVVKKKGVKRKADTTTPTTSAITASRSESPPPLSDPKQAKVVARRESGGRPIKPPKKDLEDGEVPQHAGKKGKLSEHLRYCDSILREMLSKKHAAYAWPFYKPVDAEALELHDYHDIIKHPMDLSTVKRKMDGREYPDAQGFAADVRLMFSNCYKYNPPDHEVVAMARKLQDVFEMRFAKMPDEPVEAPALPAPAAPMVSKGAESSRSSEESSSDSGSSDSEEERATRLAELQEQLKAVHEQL
T3 sequence (P25440 60-472): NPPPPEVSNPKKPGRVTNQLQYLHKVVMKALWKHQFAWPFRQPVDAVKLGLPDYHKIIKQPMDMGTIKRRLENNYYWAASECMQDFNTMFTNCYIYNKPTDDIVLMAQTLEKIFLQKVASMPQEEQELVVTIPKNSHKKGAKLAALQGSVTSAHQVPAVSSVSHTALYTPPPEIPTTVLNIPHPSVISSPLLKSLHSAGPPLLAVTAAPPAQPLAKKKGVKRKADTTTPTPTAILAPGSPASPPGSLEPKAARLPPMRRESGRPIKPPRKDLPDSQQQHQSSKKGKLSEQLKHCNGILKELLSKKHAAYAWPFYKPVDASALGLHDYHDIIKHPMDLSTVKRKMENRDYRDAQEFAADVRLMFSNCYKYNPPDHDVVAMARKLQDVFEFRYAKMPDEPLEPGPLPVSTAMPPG
T2 sequence (Q92793 1081-1197): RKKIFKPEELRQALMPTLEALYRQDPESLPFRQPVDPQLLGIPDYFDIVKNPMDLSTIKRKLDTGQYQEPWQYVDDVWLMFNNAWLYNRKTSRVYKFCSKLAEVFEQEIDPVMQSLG

| Structure (SMILES) | IC50 [1] | IC50 [3] | GI50 [4] | GI50 [5] | GI50 ([6]; Homo sapiens, K562) | IC50 [8] | other results |
| --- | --- | --- | --- | --- | --- | --- | --- |
| Cc1nn(C2CC2)c2c1C(c1ccc(Cl)cc1)N(c1cc(C)c(=O)n(C)c1)C2=O (racemic) [Example 23, 4-(4-chlorophenyl)-1-cyclopropyl-5-(1,5-dimethyl-6-oxo-1,6-dihydropyridin-3-yl)-3-methyl-4,5-dihydropyrrolo-[3,4-c]pyrazol-6(1H)-one] | 0.074 µM | 0.099 µM | – | – | – | – | IC50 [2]: 3.9 µM |
| CNc1cc(N2C(=O)c3c(c(C)nn3C3CC3)C2c2ccc(Cl)cc2)nn2c(C)nnc12 (racemic) [Example 113, 4-(4-chlorophenyl)-1-cyclopropyl-3-methyl-5-(3-methyl-8-(methylamino)-[1,2,4]triazolo[4,3-b]pyridazin-6-yl)-4,5-dihydropyrrolo-[3,4-c]pyrazol-6(1H)-one] | – | – | 112 nM | 84 nM | 511 nM | – | IC (TGI) [4]: 234 nM; IC (TGI) [5]: 127 nM; IC (TGI) ([6]; Homo sapiens, K562): > 10000 nM; IC50 [7]: 151 nM |
| Cc1cc(N2C(=O)c3nn(C)cc3[C@@H]2c2ccc(Cl)cc2)cn(C)c1=O [Example 15, (S)-4-(4-chlorophenyl)-5-(1,5-dimethyl-6-oxo-1,6-dihydropyridin-3-yl)-2-methyl-4,5-dihydropyrrolo[3,4-c]pyrazol-6(2H)-one] | – | > 6.7 µM | – | – | – | > 6.7 µM | – |
| Cc1cc(N2C(=O)c3nn(C4CC4)c(C)c3[C@@H]2c2ccc(Cl)cc2)cn(C)c1=O [Example 22, (S)-4-(4-chlorophenyl)-2-cyclopropyl-5-(1,5-dimethyl-6-oxo-1,6-dihydropyridin-3-yl)-3-methyl-4,5-dihydropyrrolo[3,4-c]pyrazol-6(2H)-one] | > 6.7 µM | – | – | – | – | > 6.7 µM | – |
| Cc1nn(C2CC2)c2c1[C@H](c1ccc(Cl)cc1)N(c1cc(Cl)c(=O)n(C)c1)C2=O [Example 50, (S)-5-(5-chloro-1-methyl-6-oxo-1,6-dihydropyridin-3-yl)-4-(4-chlorophenyl)-1-cyclopropyl-3-methyl-4,5-dihydropyrrolo[3,4-c]pyrazol-6(1H)-one] | > 6.7 µM | – | – | – | – | > 6.7 µM | – |
| COc1ncc(-n2nc3c(c2C(C)C)[C@H](c2ccc(Cl)cc2)N(c2cc(C)c4onc(C)c4c2)C3=O)c(OC)n1 [Example 61, (S)-4-(4-chlorophenyl)-2-(2,4-dimethoxypyrimidin-5-yl)-5-(3,7-dimethylbenzo[d]isoxazol-5-yl)-3-isopropyl-4,5-dihydropyrrolo-[3,4-c]pyrazol-6(2H)-one] | – | > 37 µM | 2430 nM | 948 nM | > 10000 nM | – | – |
| Cc1nn(C2CC2)c2c1[C@H](c1ccc(Cl)cc1)N(c1cc(C)c3nnc(C)n3c1)C2=O [Example 118, (S)-4-(4-chlorophenyl)-1-cyclopropyl-5-(3,8-dimethyl-[1,2,4]triazolo[4,3-a]pyridin-6-yl)-3-methyl-4,5-dihydropyrrolo-[3,4-c]pyrazol-6(1H)-one] | > 37 µM | – | 3160 nM | 1640 nM | > 10000 nM | – | IC50 [2]: > 37 µM; IC (TGI) [6]: >10000 nM |
| COc1ncccc1-n1nc2c(c1C)C(c1ccc(Cl)cc1F)N(c1cc(C)c3nnc(C)n3c1)C2=O (centres unmarked) [Example 194, 4-(4-chloro-2-fluorophenyl)-5-(3,8-dimethyl-[1,2,4]triazolo[4,3-a]pyridin-6-yl)-2-(2-methoxypyridin-3-yl)-3-methyl-4,5-dihydropyrrolo-[3,4-c]pyrazol-6(2H)-one] | – | – | 73.2 nM | 48.6 nM | 245 nM | – | – |
| Cc1nn(C2CC2)c2c1C(c1ccc(Cl)cc1)N(c1cc(C)c3nnc(C(F)F)n3n1)C2=O (centres unmarked) [Example 195, 4-(4-chlorophenyl)-1-cyclopropyl-5-(3-(difluoromethyl)-8-methyl-[1,2,4]triazolo[4,3-b]pyridazin-6-yl)-3-methyl-4,5-dihydropyrrolo-[3,4-c]pyrazol-6(1H)-one] | – | – | 30.3 nM | 23.9 nM | 127 nM | – | – |
| Cc1[nH]nc2c1C(c1ccc(Cl)cc1F)N(c1cc(C)c(=O)n(C)c1)C2=O (centres unmarked) [Example 196, 4-(4-chloro-2-fluorophenyl)-5-(1,5-dimethyl-6-oxo-1,6-dihydropyridin-3-yl)-3-methyl-4,5-dihydropyrrolo-[3,4-c]pyrazol-6(2H)-one] | – | – | 204 nM | 144 nM | 921 nM | – | – |
